{"source": "patent US7767642B2", "about": "“Therapeutic peptides for the treatment of metastatic cancer” (Arizona Biomedical Research Commission, priority 2005, dated 2010)", "key": {"[1]": {"test_system": "MDA-MB-468 breast cancer cells", "assay": "Transwell collagen gel invasion assay, peptides delivered with Bioporter", "assay_type": "cell-based", "experimental": "FIG. 1. […] A collagen gel matrix was poured onto the bottom of 8 uM pore sized-transwell inserts (modified Boyden's chamber), then inverted into 20% FBS. Cells were incubated with 100 ng/ml of peptide (with Bioporter reagent to allow for cellular uptake), then added to the top of the Transwell. Cells (serum-free) were allowed to invade into the gel, the gel was removed and invading cells enumerated.\n(§1) Peptide treatment and invasion assay: 8 um pore size Transwell inserts (Corning) will be inverted and coated with 90 ul of Type I collagen (rat tail, BD Scientific) gel mixture (2.2% sodium bicarbonate, 10× M199 media), and allowed to solidify for 30 minutes. Wells are then be inverted into DMEM with 20% fetal calf serum and allowed to rehydrate. Peptides are incubated with BioPORTER reagent (Sigma, St. Louis Mo.) for 5 minutes to promote cellular uptake, vortexed, and added to cells in serum-free media (10 ng/ml, 100 ng/ml and […] concentrations will be tested) and placed in the upper chamber of the Transwell. Cells will then be incubated for 2, 4 or 24 hours. Media is removed and gels fixed with 4% paraformaldehyde for 30 minutes and transferred to PBS, pH 7.4. Collagen gels will then either be stained with bizbenzamide for 40 minutes and all cells invaded into a gel enumerated or used in immunofluorescence assays. Invasion of peptide-treated cells are compared to PBS/bioporter treated controls or irrelevant peptide treatment.\nTo investigate the functional significance of MUC1 expression on breast cancer invasion, we have incubated invasive breast cancer cell lines with MUC1-mimetic peptides designed to the β-catenin interacting domain. We then monitored the effects of peptide treatment on invasion through a filter and into a collagen gel.\nWe performed initial experiments with these β-catenin-binding site (M2) peptides in MDA-MB-468 cells. […] We observed less than 15 M2 peptide-treated cells invaded into a collagen matrix in a 4 hour period, compared to approximately 125 cells in PBS controls."}, "MDA-MB-231 cell line [2]": {"test_system": "MDA-MB-231 cell line", "assay": "Scid xenograft model Trial II, i.v. treatment", "assay_type": "in vivo", "conditions": "20 ug/g body weight i.v.", "experimental": "Trial II: The MDA-MB-231 cell line was injected (in matrigel) into the mammary fat pad of 16 mice. These mice were then divided into 2 groups and injected once daily, MTWThF, for 2 weeks.\nGroup IIA was treated (i.v.) with 20 ug/g body weight MEBTAT peptide\nGroup IIB was treated (i.v.) with 20 ug/g body weight TAT peptide\nAll animals were sacrificed and analyzed for metastases."}, "β-catenin": {"molecular_target": "T1, β-catenin (Homo sapiens, UniProt P35222)", "T1 construct": "endogenous in cells; host or cells: MDA-MB-231 breast cancer cells", "T1 sequence (P35222 1-781)": "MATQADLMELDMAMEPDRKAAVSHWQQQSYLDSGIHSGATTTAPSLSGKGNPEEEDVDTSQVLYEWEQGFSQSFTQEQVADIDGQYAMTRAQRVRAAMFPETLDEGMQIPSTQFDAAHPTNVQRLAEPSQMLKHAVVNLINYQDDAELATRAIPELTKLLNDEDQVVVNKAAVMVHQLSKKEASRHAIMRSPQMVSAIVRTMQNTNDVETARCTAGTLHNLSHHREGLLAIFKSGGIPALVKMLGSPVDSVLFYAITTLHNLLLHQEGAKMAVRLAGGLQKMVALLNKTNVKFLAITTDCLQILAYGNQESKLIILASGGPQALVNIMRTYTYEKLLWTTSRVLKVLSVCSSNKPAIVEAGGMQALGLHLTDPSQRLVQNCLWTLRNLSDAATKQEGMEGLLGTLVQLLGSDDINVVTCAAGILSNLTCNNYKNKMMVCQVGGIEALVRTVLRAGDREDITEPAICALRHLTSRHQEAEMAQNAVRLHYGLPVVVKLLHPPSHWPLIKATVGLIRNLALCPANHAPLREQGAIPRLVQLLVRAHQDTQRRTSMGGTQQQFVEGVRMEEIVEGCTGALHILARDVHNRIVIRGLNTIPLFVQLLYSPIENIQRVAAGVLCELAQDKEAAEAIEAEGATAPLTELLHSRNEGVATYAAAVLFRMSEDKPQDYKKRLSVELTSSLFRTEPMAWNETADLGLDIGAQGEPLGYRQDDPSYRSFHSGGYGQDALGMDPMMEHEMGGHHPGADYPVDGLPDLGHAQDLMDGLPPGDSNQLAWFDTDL", "assay": "β-catenin localization after peptide treatment", "assay_type": "cell-based", "conditions": "MDA-MB-231 cells treated with peptide", "experimental": "Immunofluorescence: Cells undergoing invasion through collagen gels are immunofluorescently labeled in situ (while in the collagen gel). For immunofluorescence on collagen gels, gels are permeabilized with 0.5% Triton X-100 in 10 mM Pipes (pH 6.8), 50 mM NaCl, 300 mM sucrose and 3 mM MgCl2 for 5 minutes at room temperature. Gels are blocked with 3% BSA (Sigma), 0.05% Tween 20, in a 1:1 solution of PBS and Enhancing Wash Buffer (Innovex). Primary antibodies are incubated overnight at 4° C., and gels washed for 6 hours in 1:1 PBS: Enhancing Wash Buffer. Secondary antibodies are incubated overnight at 4° C., and washed again for 6 hours at room temperature. Gels are then mounted, coverslipped and analyzed using a Zeiss laser scanning confocal microscope. The following antibodies are used: anti-biotin (streptavidin-Alexa594, 1:500, Molecular Probes), anti-Muc1 (1:100, Santa Cruz), anti-vinculin (V9131, 1:400, Sigma Chemical Company) anti-β-catenin (H-102, 1:100, Santa Cruz Biochemical), anti-fascin (FCN01, 1:50, Neomarkers), and phalloidin-Alexa546 (1:100, Molecular Probes). Secondary antibodies can be either Alexa 488 or 546 from Molecular Probes."}, "[3]": {"test_system": "MDA-MB-231 breast cancer cells", "assay": "Invasion assay with TAT-conjugated MUC1-mimetic peptides", "assay_type": "cell-based", "conditions": "MDA-MB-231, compared to control TAT peptide", "experimental": "FIG. 4. Treatment of MDA-MB-231 cells with MEBTAT leads to a 5-fold decrease in cell invasiveness as compared to control TAT peptide in invasion assays.\nas §1\nWe have designed TAT-conjugated MUC1-mimetic peptides for their ability to inhibit the invasion of MDA-MB-231 and MDA-MB-468 invasive breast cancer cell lines. […]"}, "MDA-MB-231 cells": {"test_system": "MDA-MB-231 cells", "assay": "96-well invasion assay of MEBTAT and alanine-scanning mutants", "assay_type": "cell-based", "conditions": "96-well format, 1 hour treatment, 18 hours invasion", "experimental": "The amino acids of the MEB sequence [PYEKVSAGNGGSSLS; SEQ ID NO: 1] were replaced, one amino acid at a time, with alanine. (Note that there are only […] mutants, as one of the parental amino acid residues. was already an alanine). Note also that this experiment was done one time, with 4 replicas at each data point.\nA new assay was performed in a 96-well format. While the suppression of invasion is not as robust as that observed in the 24-well format, we still observe a 3-fold suppression of invasion with MEBTAT treatment over TAT or PBS. […] Altering any of the remaining amino acids completely eliminated the effect, indicating a critical role for both the YEKV (EGFR/src binding site) and the SAGNGGSSLS (beta-catenin binding site). Also important is the P (at residue #1) that links MEB to the TAT. The proline could be providing important access of the peptide to MUC1 binding sites.\nMDA-MB-231 cells were treated for 1 hour with MEBTAT (M), TAT (T), PBS (P), or alanine scanning mutants of MEBTAT. Cells were treated with Calcein-AM and allowed to invade across an 8-uM Transwell into a Type I collagen gel for 18 hours. Invasion was analyzed by spectrophotometry."}, "MDA-MB-231 cell line [4]": {"test_system": "MDA-MB-231 cell line", "assay": "Scid xenograft model Trial 1, i.p. treatment", "assay_type": "in vivo", "conditions": "for animals with tumor regression / tumor regression in the regressing animal: once daily MWF", "experimental": "Trial 1. The MDA-MB-231 cell line was injected (in matrigel) into the mammary fat pad of 24 mice. These mice were then divided into 3 groups and injected once daily, MWF, for 2 weeks.\nGroup IA was treated (i.p.) with 10 ug/g body weight MEBTAT peptide\nGroup IB was treated (i.p.) with 20 ug/g body weight MEBTAT peptide\nGroup IC was treated (i.p.) with 20 ug/g body weight TAT peptide\nAt the end of 2 weeks, we had 27% tumor regression in 1/7 animals in group IA, 7% tumor regression in 1/7 animals in group IB, and no tumor regression (0/7) in group IC.\nAll tumors were surgically resected 3 days after final drugging, and the mice were monitored for an additional 10 days. […] This correlates to a 25% increase in overall survival time for the animals taking 20 ug/g body weight of MEBTAT compared to TAT."}, "[5]": {"test_system": "MDA-MB-231 and MDA-MB-468 invasive breast cancer cell lines", "assay": "Invasion assay with TAT-conjugated MUC1-mimetic peptides, cell line not given", "assay_type": "cell-based", "conditions": "TAT-conjugated peptide", "experimental": "as §1\nWe have designed TAT-conjugated MUC1-mimetic peptides for their ability to inhibit the invasion of MDA-MB-231 and MDA-MB-468 invasive breast cancer cell lines.\nPeptides were designed to carry the TAT transduction domain for entry into cells. The following peptides were designed, produced and tested: […]"}, "[6]": {"conditions": "10 ug/g body weight i.p., end of 2 weeks"}, "[7]": {"conditions": "20 ug/g body weight i.p., end of 2 weeks"}}, "note": "“And” between values parts separate entries of the source, which are not always exact repeats. Identical values can stand only once. Where no end group is shown, it is not given here. TAT = Protein Transduction Domain of the HIV protein TAT (trans-activating transcriptional activator protein), a cell-penetrating sequence", "data": [{"substance": "M2: MUC1-β-catenin binding domain mimetic peptide, SEQ ID NO: 7 (SAGNGGSSLSY; listed as Homo sapiens)", "values": [{"measurement": "cells invaded into a collagen matrix", "setting": "[1]; 4 hour period, approximately 125 cells in PBS controls", "value": "less than 15 cells"}, {"measurement": "inhibition of invasion into a collagen matrix", "setting": "[1]; MDA-MB-468, 100 ng/ml peptide with Bioporter, vs PBS controls", "value": "approximately 8 fold"}, {"measurement": "effect on invasion", "setting": "[1]; MDA-MB-468, compared to PBS treated controls", "value": "inhibits invasion"}]}, {"substance": "TAT-PYEKVSAGNGGSSLS ({TAT}-PYEKVSAGNGGSSLS; listed as Homo sapiens) [MEBTAT]", "values": [{"measurement": "toxicity", "setting": "MDA-MB-231 cell line [2]; 2 weeks", "value": "no detectable toxicity"}, {"measurement": "tumor volume reduction in regressing animals", "setting": "MDA-MB-231 cell line [2]; end of 2 weeks, individual mice", "value": "7% and 9% and 21%"}, {"measurement": "animals with tumor regression", "setting": "MDA-MB-231 cell line [2]; once daily MTWThF, end of 2 weeks", "value": "3/8"}, {"measurement": "visible metastases in diaphragms (animals)", "setting": "MDA-MB-231 cell line [2]; sacrifice at 2 weeks", "value": "4/8"}, {"measurement": "visible metastases in livers (animals)", "setting": "MDA-MB-231 cell line [2]; sacrifice at 2 weeks", "value": "1/8"}, {"measurement": "visible metastases in lungs (animals)", "setting": "MDA-MB-231 cell line [2]; sacrifice at 2 weeks", "value": "0/8"}, {"measurement": "β-catenin localization", "setting": "β-catenin", "value": "β-catenin localization at sites of focal adhesion and lamellapodia"}, {"measurement": "decrease in cell invasiveness / block of invasion", "setting": "[3]", "value": "5 fold and 6 fold"}, {"measurement": "suppression of invasion over TAT or PBS", "setting": "MDA-MB-231 cells", "value": 3, "unit": "fold"}, {"measurement": "animals with tumor regression", "setting": "MDA-MB-231 cell line [4]; [6]", "value": "1/7"}, {"measurement": "tumor regression in the regressing animal", "setting": "MDA-MB-231 cell line [4]; [6]", "value": 27, "unit": "%"}, {"measurement": "increase in overall survival time compared to TAT", "setting": "MDA-MB-231 cell line [4]; 20 ug/g body weight i.p.", "value": 25, "unit": "%"}, {"measurement": "animals with tumor regression", "setting": "MDA-MB-231 cell line [4]; [7]", "value": "1/7"}, {"measurement": "tumor regression in the regressing animal", "setting": "MDA-MB-231 cell line [4]; [7]", "value": 7, "unit": "%"}, {"measurement": "toxicity of the peptide treatment", "setting": "MDA-MB-231 cell line [4]; 10 and 20 ug/g body weight i.p., 2 weeks", "value": "no detectable toxicity"}, {"measurement": "tumor regrowth after surgical resection", "setting": "MDA-MB-231 cell line [4]; all 3 groups, monitored 10 days after resection", "value": "no statistically significant difference in growth rates"}, {"measurement": "decrease in tumor volume compared to TAT", "setting": "MDA-MB-231 cell line [4]; all treatment groups, i.p., end of 2 weeks", "value": 20, "unit": "%"}]}, {"substance": "TAT-SAGNGGSSLS ({TAT}-SAGNGGSSLS; listed as Homo sapiens) [MBTAT]", "values": [{"measurement": "suppression of invasion", "setting": "[5]", "value": 8, "unit": "fold"}]}, {"substance": "TAT-SSTDRSPYEKVSAGNGGSSLSYTNP ({TAT}-SSTDRSPYEKVSAGNGGSSLSYTNP; listed as Homo sapiens) [MTAT1, used for positive controls, reference compound]", "values": [{"measurement": "increase of invasion", "setting": "[5]", "value": 18, "unit": "fold"}]}]}
